Patent US20220274980A1, “PHARMACOLOGICAL INHIBITORS OF THE ENL YEATS DOMAIN” (priority 2019, published 2022)
pIC50: −log10 of the molar value.

Legend:
ENL(YEATS)-HiBiT = target: T1, ENL(YEATS)-HiBiT (Homo sapiens, UniProt Q03111); test: cell-based
T1 sequence (Q03111 1-138 limits assumed): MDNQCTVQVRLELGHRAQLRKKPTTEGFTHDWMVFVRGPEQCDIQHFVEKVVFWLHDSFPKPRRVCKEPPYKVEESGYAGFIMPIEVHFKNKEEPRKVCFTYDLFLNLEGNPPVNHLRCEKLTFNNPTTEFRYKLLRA
Procedure: Cellular thermal shift assay (CETSA). […] Cells were transferred to 384-well (20,000 cells per well in 20 μL) or 1,536-well (3,000 cells per well in 4 μL) plates and drug was transferred using a 100 nL pin tool for 384-well plates or acoustic transfer (Labcyte, Echo Liquid Handler) for 1,536-well plates. Luminescent detection of HiBiT was performed by combining an equal volume of Nano-Glo HiBiT Lytic Reagent (Promega, HiBiT Lytic Detection System, Cat. No. N3040) in each well. […] Briefly, cells were treated with drug, washed with PBS, heated to various temperatures in a thermocycler, cooled to room temperature, lysed by three rounds of freeze-thaw, and then clarified lystaes were subjected to immunoblot analysis.

[1] = target: T2, ENL YEATS domain (association with H3K27cr) (Homo sapiens, UniProt Q03111); test: biochemical; details: ENL (YEATS)-H3K27cr HTRF (IC50, μM)
T2 sequence (Q03111 1-148): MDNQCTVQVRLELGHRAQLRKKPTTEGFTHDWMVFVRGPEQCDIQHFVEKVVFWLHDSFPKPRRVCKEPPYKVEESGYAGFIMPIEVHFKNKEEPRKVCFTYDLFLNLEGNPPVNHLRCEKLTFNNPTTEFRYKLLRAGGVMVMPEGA
Procedure: (§1) Protein Production. Double stranded DNA fragments encoding the protein sequence of ENL YEATS(1-148) were synthesized (IDT DNA) for assembly-based cloning into a modified expression vector backbone derived from pET21a (Novagen). The protein was fused to a StrepII-SUMO and 6×His tag on the amino and carboxy terminus, respectively. Transformed BL21(DE3) cells (New England Biolabs) were grown at 37° C. in 2×YT growth medium to an OD600 of 0.6. Protein expression was induced at 25° C. with the addition of isopropyl-β-D-thiogalactopyranoside (IPTG) to a final concentration of 0.4 mM. The culture was harvested by centrifugation following a 20-hour incubation and subsequently purified by immobilized metal affinity chromatography. Cells were resuspended 50 mM Tris-HCl pH 8.0, 300 mM NaCl, 10% glycerol, 10 mM imidazole, 1 mM DTT containing Complete EDTA-free protease inhibitor (Roche) and lysed by two passes through a MicroFluidizer at 10,000 psi. The lysate was clarified by centrifugation at 16,000 rpm for 30 minutes at 4° C. The supernatant was passed over NiNTA agarose (QIAGEN) and the protein was eluted in 50 mM Tris-HCl pH 8.0, 300 mM NaCl, 10% glycerol, 250 mM imidazole, 1 mM DTT. Fractions containing the ENL YEATS(1-148) fusion protein were buffer exchanged into 100 mM Tris-HCl pH 8.0, 150 mM NaCl, 1 mM EDTA, 1 mM DTT using PD10 desalting columns (GE Life Sciences). Ulp1 protease was added to cleave the StrepII-SUMO fusion and the reaction mixture was incubated overnight at 4° C. The cleavage reaction mixture was loaded onto a StrepTrap column (GE Life Sciences) and ENL YEATS(1-148) was recovered in the flow through. BRD4 BD1 was purchased from Cayman (Cat. No. 11720).
(§2) Homogenous time-resolved FRET (HTRF) histone-binding assays. Both HTRF assays were performed by combining recombinant protein and synthetic histone peptide in assay buffer (25 mM HEPES pH 7, 20 mM NaCl, 0.2% Pluronic F-127, and 0.05% BSA) with 1 nM LanthaScreen Eu-anti-His Tag antibody (ThermoFisher, Cat. No, PV5597) and 8.9 nM SureLight allophycocyanin-streptavidin (Perkin Elmer, APC-SA, Cat. No. CR130-100). ENL YEATS was used at 5 nM and BRD4 BD1 was used at 10 nM. ENL assays were performed with H3(13-32)K27cr (13.3 and 100 nM, respectively), custom synthesized at ABclonal (N-terminal biotin, C-terminal amide); BRD4 BD1 assay was performed with 13.3 nM tetra-acetylated H4 (BioVision, Cat. No. 7144-01). Once all reagents were combined (with or without peptide), 10 μL was dispensed per well into black 384-well low-volume plates (Corning, Cat. No. 3821) and drug was added by pin tool transfer (Biomek FX). Assays were incubated for 2 or more hours before measurement of HTRF signal on a PHERAstar plate reader (BMG Labtech; simultaneous dual emission; excitation=337 nm, emission 1=665 nm, emission 2=620 nm). HTRF signal (ratio of emission 1 to emission 2) from vehicle-treated wells (maximum signal) and no-peptide-control wells (minimum signal) were used to calculate percent inhibition for drug-treated wells.

BRD4 bromodomain 1 (BD1) = target: T3, BRD4 bromodomain 1 (BD1) (Homo sapiens, UniProt O60885); test: BRD4 (BD1)-H4 tetra-acetylated HTRF histone-binding assay
T3 construct: Selectivity against BRD4 bromodomain 1 (BD1), measured by HTRF; His; purchased Cayman 11720
Procedure: as §1, §2

Row | Structure (SMILES) | pIC50 (ENL(YEATS)-HiBiT) | IC50 ([1]; Table 1) | IC50 ([1]; Table 2) | pIC50 (BRD4 bromodomain 1 (BD1); Table 1) | pIC50 (BRD4 bromodomain 1 (BD1); Table 2)
1 | O=C(NC1CCC1)c1ccc2nc(-c3cccc(NS(=O)(=O)NCCN4CCC(F)(F)CC4)c3)cn2c1 [Compound 97] | 5.55 | 0.206 µM | 0.206 µM | – | –
2 | COc1ccc(-c2cn3cc(C(=O)NC4CCC4)ccc3n2)cc1 [Compound 78] | 5.10 | 3.27 µM | 3.27 µM | – | –
3 | O=C(NC1CC(CO)C1)c1ccc2nc(-c3ccccc3)cn2c1 (stereo not drawn) [Compound 85] | 4.59 | 21.3 µM | 21.3 µM | – | –
4 | CC(C)NC(=O)c1ccc2nc(-c3ccncc3)cn2c1 [Compound 5] | 4.21 | 4.1 µM | 4.1 µM | < 4.30 | < 4.30
5 | O=C(NC1CCCC1)c1ccc2nc(-c3ccccc3)cn2c1 [Compound 23] | 4.39 | 1.8 µM | 1.8 µM | < 4.30 | < 4.30
6 | CC(C)NC(=O)c1ccc2nc(-c3ccc(C#N)cc3)cn2c1 [Compound 4] | 4.10 | 2.9 µM | 2.9 µM | < 4.30 | < 4.30
7 | Cc1cccc(-c2cn3cc(C(=O)NC(C)C)ccc3n2)c1 [Compound 17] | 4.10 | 4.8 µM | 4.8 µM | < 4.30 | < 4.30
8 | CC(NC(=O)c1ccc2nc(-c3ccccc3)cn2c1)c1ccncc1 (stereo not drawn) [Compound 24] | 4.10 | 12 µM | 12 µM | < 4.30 | < 4.30
9 | Cc1ccc(-c2cn3cc(C(=O)NC(C)C)ccc3n2)cc1 [Compound 14] | 4.10 | 2.6 µM | 2.6 µM | < 4.30 | < 4.30
10 | O=C(NC1CCC1)c1ccc2nc(-c3cccc(NS(=O)(=O)NCC(=O)N4CCCCC4)c3)cn2c1 [Compound 98] | 4.92 | 0.101 µM | 0.101 µM | – | –
11 | C#CC1CC(NC(=O)c2ccc3nc(-c4ccccc4)cn3c2)C1 (stereo not drawn) [Compound 117] | 4.72 | 10 µM | 10 µM | – | –
12 | C#C[C@H]1C[C@@H](NC(=O)c2ccc3nc(-c4ccccc4)cn3c2)C1 [Compound 122] | 4.72 | 6 µM | 6 µM | – | –
13 | CC(C)NC(=O)c1ccc2nc(-c3cccc(NS(=O)(=O)NCCc4c[nH]cn4)c3)cn2c1 [Compound 46] | 5.07 | 0.12 µM | 0.12 µM | < 4.30 | < 4.30
14 | CO[C@@H]1CC[C@H]1NC(=O)c1ccc2nc(-c3ccccc3)cn2c1 [Compound 126] | 4.66 | 61 µM | 61 µM | – | –
15 | N#Cc1ccc(-c2cn3cc(C(=O)NC4CCC4)ccc3n2)cc1 [Compound 86] | 5.60 | 1.3 µM | 1.3 µM | – | –
16 | CC1CCCCN1CCNS(=O)(=O)Nc1cccc(-c2cn3cc(C(=O)NC4CCC4)ccc3n2)c1 (stereo not drawn) [Compound 96] | 5.11 | 0.163 µM | 0.163 µM | – | –
17 | O=C(NCc1cccnc1)c1ccc2nc(-c3ccccc3)cn2c1 [Compound 9] | 4.10 | 6.8 µM | 6.8 µM | < 4.30 | < 4.30
18 | O=C(NC1CCC1)c1ccc2nc(-c3cccc(NS(=O)(=O)NCCN4CCC(O)CC4)c3)cn2c1 [Compound 99] | 6.13 | 0.05 µM | 0.05 µM | – | –
19 | O=C(O)COC1CCN(CCC(=O)Nc2cccc(-c3cn4cc(C(=O)NC5CCC5)ccc4n3)c2)CC1 [Compound 111] | 5.21 | 0.243 µM | 0.243 µM | – | –

Row | Structure (SMILES) | pIC50 (ENL(YEATS)-HiBiT) | IC50 ([1]; Table 1) | IC50 ([1]; Table 2) | pIC50 (BRD4 bromodomain 1 (BD1); Table 1) | pIC50 (BRD4 bromodomain 1 (BD1); Table 2)
20 | O=C(NC1CCC1)c1ccc2nc(-c3ccccc3)cn2c1 [Compound 15] | 5.39 | 0.506 µM | 0.506 µM | < 4.30 | < 4.30
21 | COc1ccc(-c2cn3cc(C(=O)NC(C)C)ccc3n2)cc1 [Compound 22] | 4.10 | 1.3 µM | 1.3 µM | < 4.30 | < 4.30
22 | O=C(N[C@@H]1CCc2ccccc21)c1ccc2nc(-c3ccccc3)cn2c1 [Compound 74] | 5.05 | 2.29 µM | 2.29 µM | – | –
23 | O=C(NC1CCCC(O)C1)c1ccc2nc(-c3ccccc3)cn2c1 (stereo not drawn) [Compound 16] | 4.10 | 20 µM | 20 µM | < 4.30 | < 4.30
24 | COC[C@@H]1CC[C@@H]1NC(=O)c1ccc2nc(-c3ccccc3)cn2c1 [Compound 127] | 4.49 | 58 µM | 58 µM | – | –
25 | O=C(N[C@@H]1CC[C@H]1O)c1ccc2nc(-c3ccccc3)cn2c1 [Compound 124] | 4.25 | 21 µM | 21 µM | – | –
26 | O=C(NC1CC(O)C1)c1ccc2nc(-c3ccccc3)cn2c1 (stereo not drawn) [Compound 76] | 4.45 | > 50 µM | > 50 µM | – | –
27 | Cc1ccccc1-c1cn2cc(C(=O)NC(C)C)ccc2n1 [Compound 26] | 4.10 | 33 µM | 33 µM | < 4.30 | < 4.30
28 | O=C(NC1CCC1O)c1ccc2nc(-c3ccccc3)cn2c1 (stereo not drawn) [Compound 116] | 4.46 | 36 µM | 36 µM | – | –
29 | COC(=O)[C@H]1CCCN1S(=O)(F)=Nc1cccc(-c2cn3cc(C(=O)NC(C)C)ccc3n2)c1 (stereo partly drawn) [Compound 55] | – | 0.95 µM | 0.95 µM | < 4.30 | < 4.30
30 | CC(C)NC(=O)c1ccc2nc(-c3ccc(N)cc3)cn2c1 [Compound 39] | – | 7.8 µM | 7.8 µM | < 4.30 | < 4.30
31 | CC(C)NC(=O)c1ccc2nc(-c3cccc(NS(=O)(=O)NCCCn4ccnc4)c3)cn2c1 [Compound 67] | – | 0.33 µM | 0.33 µM | < 4.30 | < 4.30
32 | O=C(NC1CC2(CC2)C1)c1ccc2nc(-c3ccccc3)cn2c1 [Compound 118] | 5.15 | 0.723 µM | 0.723 µM | – | –
33 | COC[C@@H]1CC[C@H]1NC(=O)c1ccc2nc(-c3ccccc3)cn2c1 [Compound 121] | 4.64 | 13 µM | 13 µM | – | –
34 | CC(C)NC(=O)c1ccc2nc(-c3cccc(NS(=O)(=O)NCCOCCO)c3)cn2c1 [Compound 42] | – | 0.55 µM | 0.55 µM | < 4.30 | < 4.30
35 | CC(C)NC(=O)c1ccc2nc(-c3cccc(NS(=O)(=O)NCc4ccc(O)cc4)c3)cn2c1 [Compound 47] | – | 0.37 µM | 0.37 µM | < 4.30 | < 4.30
36 | CC(C)NC(=O)c1ccc2nc(-c3cccc(NS(=O)(=O)NCCCN4CCCC4=O)c3)cn2c1 [Compound 53] | – | 0.88 µM | 0.88 µM | < 4.30 | < 4.30
37 | O=C(NC1COC1)c1ccc2nc(-c3ccccc3)cn2c1 [Compound 70] | 4.56 | > 50 µM | > 50 µM | – | –
38 | Cc1ccc(-c2cn3cc(C(=O)NC4CCC4)ccc3n2)cc1 [Compound 71] | 5.26 | 1.17 µM | 1.17 µM | – | –
